Laboratory results: US20230219912A1, “HALOGENATED BENZOTHIADIAZINES FOR THE TREATMENT OF CANCER” (BOARD OF REGENTS OF THE UNIVERSITY OF NEBRASKA, priority 2020, published 2023)
Values joined by “and” are separate entries in the source; they are usually repeats but may differ in a detail not shown here. Equal values may be shown once. “Also recorded” adds a separate entry of the source.

Key:
[1] = target: T1, Mitochondrial respiratory complex II (Rattus norvegicus, UniProt P21913+Q641Z9+Q6PCT8+Q920L2); assay: Mitochondrial respiratory complex II inhibition assay; type: biochemical
T1 construct: measured spectrophotometrically using isolated rat heart mitochondria; from tissue; host or cells: rat heart mitochondria / sub-mitochondrial particles
Summary of the method: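 Rat heart mitochondria or sub-mitochondrial particles in phosphate buffer pH 7.4 with 40 μM DCPIP, 1 mM KCN, 10 μM rotenone and 50 μM co-enzyme Q2.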

[2] = test system: 22Rv1 prostate cancer cells; assay: MTS cytotoxicity assay in 22Rv1 prostate cancer cells; details: for effect on cell viability of prostate cancer cells: 100 μM up to 72 hours
Summary of the method: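 Cells seeded at 1×10^5 per well and dosed after 24 h at the indicated concentrations (final DMSO <1%), then incubated 48-72 hours at 37° C, 5% CO2. MTS added for 2-4 hr; absorbance at 490 nm, viability expressed as percentage of controls.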

[3] = test system: MDA-MB-468 triple negative breast cancer cells; assay: MTS cytotoxicity assay in MDA-MB-468 triple negative breast cancer cells; type: cell-based; details: 10, 50 and 100 μM for 24, 48 and 72 hours, MTS
Method: The assay was performed as follows.
Derivatives were dosed at 10, 50 and 100 μM for 24, 48 and 72 hours and cell viability measured by MTS assay (FIG. 5).

[4] = test system: VEGF-induced proliferation of HUVEC cells; assay: VEGF-induced HUVEC proliferation, MTT assay; type: cell-based, human; details: Homo sapiens, HUVEC, 48 h, 20 μM compound, VEGF 10 ng/mL, HUVEC, 48 h; relative to VEGF treated cells; mean ± SEM n = 3; read-out: % Inhibition of Proliferation
Summary of the method: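 HUVECs starved 24 h in 0.1% BSA/0.1% FBS basal medium, then treated 48 h with VEGF (10 ng/mL) alone or with compounds at 20 μM (DMSO <1%). Proliferation by MTT (2 h, 37° C), formazan dissolved in acidified isopropanol, absorbance at 570 nm.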

[5] = test system: phosphorylated vascular endothelial growth factor receptor-2 (VEGFR2); assay: Western blot of pVEGFR2 in VEGF-treated HUVEC cells; type: cell-based, human; details: 20 μM, VEGF 10 ng/mL, 5 min
Method: Cells were treated with test compounds (20 μM) along with VEGF (10 ng/mL) for 5 min. The DMSO was used as a negative control, whereas DMSO+VEGF was used as a positive control. Cells were lysed using RIPA buffer (10 mmol/L Tris-HCl, 1 mmol/L EDTA, 0.5 mmol/L EGTA, 1% Triton X-100, 0.1% sodium deoxycholate, 0.1% SDS and 140 mmol/L NaCl), supplemented with protease and phosphatase inhibitors (Halt Protease and Phosphatase Inhibitor). Cell lysates were centrifuged, and the supernatants were mixed with appropriate amount of 5×SDS loading buffer. Proteins were resolved on polyacrylamide gel and transferred onto nitrocellulose/PVDF membrane, blocked for 1 hour with 10% milk block prepared in 0.1% Tween 20 in 1×PBS (PBST), and treated with pVEGFR2 primary antibody at 4° C. overnight. The membrane was washed thrice with PBST, 5 minutes each, and treated with secondary antibody for 1 hour. The membrane was further washed three times, 5 minutes each, with PBST and developed using chemiluminescence, and the bands were analyzed using densitometry.

[6] = target: T2, Mitochondrial respiratory complex II (CII) (Rattus norvegicus, UniProt P21913+Q641Z9+Q6PCT8+Q920L2); details: rat heart mitochondria, literature; cited from earlier work
T2 construct: host or cells: rat heart mitochondria

[7] = target: IRAK1 (Homo sapiens, UniProt P51617); details: 100 μM; cited from earlier work
[8] = target: DYRK1A (Homo sapiens, UniProt Q13627); details: 100 μM; cited from earlier work
[9] = test system: MCF-7 breast cancer cells; details: cited from earlier work
[10] = test system: hormone-dependent mammary carcinomas; details: 300 mg/kg, rats; cited from earlier work
[11] = test system: breast cancer; details: 200-300 mg per day, cited from earlier work

T1 sequence (Q920L2 35-656): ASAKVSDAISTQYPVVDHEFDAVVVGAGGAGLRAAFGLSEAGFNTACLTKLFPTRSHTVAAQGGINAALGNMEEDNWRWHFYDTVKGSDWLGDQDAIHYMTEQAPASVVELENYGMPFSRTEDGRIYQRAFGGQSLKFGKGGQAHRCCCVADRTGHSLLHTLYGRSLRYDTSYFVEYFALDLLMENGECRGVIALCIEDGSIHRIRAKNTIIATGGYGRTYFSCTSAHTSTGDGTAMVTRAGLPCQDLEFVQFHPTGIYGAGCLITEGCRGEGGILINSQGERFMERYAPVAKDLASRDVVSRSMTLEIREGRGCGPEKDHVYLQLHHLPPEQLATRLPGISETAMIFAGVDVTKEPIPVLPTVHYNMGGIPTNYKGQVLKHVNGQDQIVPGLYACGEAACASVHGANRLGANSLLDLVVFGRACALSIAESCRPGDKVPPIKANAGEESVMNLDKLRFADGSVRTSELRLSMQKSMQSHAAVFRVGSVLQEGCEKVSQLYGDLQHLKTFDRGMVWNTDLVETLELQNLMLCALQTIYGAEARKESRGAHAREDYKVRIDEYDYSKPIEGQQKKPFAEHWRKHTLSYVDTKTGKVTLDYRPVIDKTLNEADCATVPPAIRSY
T1 sequence (P21913 31-282): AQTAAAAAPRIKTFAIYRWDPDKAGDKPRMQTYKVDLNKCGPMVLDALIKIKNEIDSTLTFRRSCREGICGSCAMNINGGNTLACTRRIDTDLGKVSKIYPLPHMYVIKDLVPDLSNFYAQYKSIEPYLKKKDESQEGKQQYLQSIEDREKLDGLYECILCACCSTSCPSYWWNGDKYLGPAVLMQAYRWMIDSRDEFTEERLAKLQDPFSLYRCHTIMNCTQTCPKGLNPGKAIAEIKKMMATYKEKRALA
T1 sequence (Q641Z9 1-169): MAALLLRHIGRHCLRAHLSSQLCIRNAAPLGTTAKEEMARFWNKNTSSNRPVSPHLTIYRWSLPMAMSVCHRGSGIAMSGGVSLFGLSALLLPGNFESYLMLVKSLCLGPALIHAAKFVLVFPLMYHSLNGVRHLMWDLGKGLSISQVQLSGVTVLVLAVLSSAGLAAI
T1 sequence (Q6PCT8 57-159): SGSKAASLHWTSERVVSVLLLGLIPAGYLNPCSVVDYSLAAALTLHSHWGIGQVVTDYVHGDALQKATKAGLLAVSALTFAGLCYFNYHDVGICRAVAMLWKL
Sequence of IRAK1 (P51617 whole entry): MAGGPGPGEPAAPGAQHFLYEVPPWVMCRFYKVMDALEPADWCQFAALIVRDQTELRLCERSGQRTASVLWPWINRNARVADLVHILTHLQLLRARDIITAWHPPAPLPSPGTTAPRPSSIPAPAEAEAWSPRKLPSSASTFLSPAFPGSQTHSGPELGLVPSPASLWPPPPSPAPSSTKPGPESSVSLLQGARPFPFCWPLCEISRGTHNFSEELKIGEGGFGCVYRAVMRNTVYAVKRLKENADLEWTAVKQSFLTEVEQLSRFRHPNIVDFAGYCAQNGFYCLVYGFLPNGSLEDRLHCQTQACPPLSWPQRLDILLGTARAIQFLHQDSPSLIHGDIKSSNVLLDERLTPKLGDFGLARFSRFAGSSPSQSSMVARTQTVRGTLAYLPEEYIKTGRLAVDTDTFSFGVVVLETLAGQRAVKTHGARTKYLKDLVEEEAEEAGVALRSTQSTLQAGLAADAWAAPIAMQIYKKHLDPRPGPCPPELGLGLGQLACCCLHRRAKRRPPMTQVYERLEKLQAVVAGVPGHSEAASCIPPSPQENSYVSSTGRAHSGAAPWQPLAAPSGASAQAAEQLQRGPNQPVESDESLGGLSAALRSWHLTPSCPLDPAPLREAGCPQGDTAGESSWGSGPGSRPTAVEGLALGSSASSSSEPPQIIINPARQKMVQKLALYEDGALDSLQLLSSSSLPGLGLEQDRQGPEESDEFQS
T2 sequence (Q920L2 35-656): as the sequence (Q920L2 35-656) above
T2 sequence (P21913 31-282): as the sequence (P21913 31-282) above
T2 sequence (Q641Z9 30-169 limits assumed): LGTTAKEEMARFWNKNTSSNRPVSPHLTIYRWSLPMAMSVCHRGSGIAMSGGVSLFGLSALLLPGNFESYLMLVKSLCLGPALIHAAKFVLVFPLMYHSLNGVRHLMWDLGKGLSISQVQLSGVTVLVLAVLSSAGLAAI
T2 sequence (Q6PCT8 57-159): as the sequence (Q6PCT8 57-159) above

## CC1=Nc2ccc(Cl)cc2S(=O)(=O)N1 [Diazoxide, 7-chloro-3-methyl-2H-1,2,4-benzothiadiazine 1,1-dioxide, reference compound]
[1]; 100 μM, relative to DMSO control
  inhibition of CII: no CII inhibition activity
[1]; 100 μM, relative to DMSO control, read-out: inhibition of CII
  inhibition at 100 µM: 9%
[1]; isolated rat heart mitochondria, mean ±SD of n = 4, read-out: CII IC50
  IC50: 1.24 mM and > 1 mM
[2]
  effect on cell viability of prostate cancer cells: no effect to reduce cell viability
[2]; listed as 9
  effect on cell viability of prostate cancer cells: no effect on cell viability
[2]; Homo sapiens, 22Rv1, 48 h, read-out: reduction of 22Rv1 cell viability
  cytotoxicity at 100 µM: 12%
[3]
  effect on MDA-MB 468 TNBC cell viability: no effect to reduce cell viability; also recorded: little activity to reduce TNBC cell viability
[3]; listed as 9
  effect on MDA-MB 468 TNBC cell viability: no effect on cell viability
[4]
  inhibition at 20 µM: 15 ± 20%
[5]
  attenuation of pVEGFR2 expression: good activity to suppress pVEGFR2
[6]
  IC50: 32 µM
[7]
  inhibition of IRAK1: 9%
[8]
  inhibition of DYRK1A: 7%
[9]
  IC50: 130 µM
[10]
  adverse effect: mild reversible diabetes
  inhibition of tumor growth: 90%
[11]; nine patients
  response rate: 33%
[11]
  duration of stable disease: 4-8 months
